Read-outs that look alike come from different tables or passages of the source.
Test system: HCV replicon in Huh-7 cells
Experiment: HCV replicon assay (NPT ELISA) for inhibition of HCV replication
Format: cell-based
Conditions: Hepatitis C virus, Huh-7, 72 h, HCV replicon-containing Huh-7 cells, three days incubation
Method: Compounds claimed herein are tested for the ability to inhibit viral replication of the Hepatitis C replicon in cultured cells in which the HCV replicon construct has been incorporated. The HCV replicon system was described by Bartenschlager, et. al (Science, 285, pp. 110-113 (1999)). The replicon system is predictive of in vivo anti-HCV activity; compounds that are active in humans uniformly evidence activity in the replicon assay.
In this assay HCV replicon containing cells are treated with different concentrations of the test compound to ascertain the ability of the test compound to suppress replication of the HCV replicon. As a positive control, HCV replicon-containing cells are treated with different concentrations of interferon alpha, a known inhibitor of HCV replication. The replicon assay system includes Neomycin Phosphotransferase (NPT) as a component of the replicon itself in order to detect the transcription of replicon gene products in the host cell. Cells in which the HCV replicon is actively replicating have high levels of NPT; the level of NPT is proportional to HCV replication. […] The NPT level of each sample is measured using a captured ELISA.
A protocol for testing compounds for the ability to inhibit viral replication of the Hepatitis C replicon cultured cells in which the replicon construct has been incorporated, follows.
The HCV replicon contains, 5′-3′, the HCV-IRES, the neomycin phosphotransferase (neo) gene, the IRES of encephalomyocarditis virus, which directs translation of HCV sequences NS3 to NS5B, and the 3′-NTR. The sequence of the HCV replicon has been deposited in GenBank (Accession no. AJ242652).
The replicon is transfected into Huh-7 cells using standard methods such as electroporation.
The equipment and materials include, but are not limited to, Huh-7 HCV replicon-containing cells, maintenance media (DMEM (Dulbecco's modified Eagle media) supplemented with 10% FBS, L-glutamine, non-essential amino acids, penicillin (100 units/ml), streptomycin (100 micrograms/ml), and 500 micrograms/ml of Geneticin (G418), screening media (DMEM supplemented with 10% FBS, L-glutamine, non-essential amino acids, penicillin (100 units/ml) and streptomycin (100 micrograms/ml)), 96 well tissue culture plates (flat bottom), 96 well plates (U bottom for drug dilution), Interferon alpha for positive control, fixation reagent (such as methanol:acetone), primary antibody (rabbit anti-NPTII), secondary antibody: Eu-N11, and enhancement solution.
HCV replicon-containing cells support high levels of viral RNA replicon replication when their density is suitable. Over-confluency causes decreased viral RNA replication. Therefore, cells must be kept growing in log phase in the presence of 500 micrograms/ml of G418. Generally, cells should be passed twice a week at 1: 4-6 dilution. Cell maintenance is conducted as follows:
HCV replicon-containing cells are examined under a microscope to ensure that cells growing well. Cells are rinsed once with PBS and 2 ml trypsin is added. The cell/trypsin mixture is incubated at 37° C. in a CO2 incubator for 3-5 minutes. After incubation 10 ml of complete media is added to stop the trypsinization reaction. Cells are blown gently, put into a 15 ml tube, and spun at 1200 rpm for 4 minutes. The trypsin/medium solution is removed. Medium (5 ml) is added and the cells are mixed carefully. The cells are counted.
The cells are then seeded onto 96-well plates at a density of 6000-7500 cells/100 microliters/well (6-7.5×10^5 cells/10 ml/plate). The plates are then incubated at 37° C. in a 5% CO2 incubator.
Cells are examined under a microscope approximated 24 hours after seeding and prior to adding drugs. If counting and dilution were performed correctly, cells are 60-70% confluent and nearly all cells should attach and spread evenly in the well.
HCV replicon-containing cells are rinsed with once PBS once; 2 mls of trypsin are then added. Cells are incubated at 37° C. in a 5% CO2 incubator for 3-5 minutes. […]

`CCOC(=O)C12CC1/C=C\CCCC(=O)N(CCCCCC(=O)O)[C@@H](C(C)(C)C)C(=O)N1C[C@H](Oc3cc(-c4ccccc4)nc4cc(OC)ccc34)C[C@H]1C(=O)N2` (stereo partly drawn) [Compound 3, 6-((2R,6S,16aS,Z)-6-tert-butyl-14a-(ethoxycarbonyl)-2-(7-methoxy-2-phenylquinolin-4-yloxy)-5,8,16-trioxo-2,3,5,6,8,9,10,11,13a,14,14a,15,16,16a-tetradecahydrocyclopropa[n]pyrrolo[2,1-c] [1,4,7]triazacyclopentadecin-7(1H)-yl)hexanoic acid] showed an EC50 (read-out: EC50) of over 10 µM.
`COc1ccc2c(O[C@@H]3C[C@H]4C(=O)N[C@@]5(C(=O)NS(=O)(=O)C6CC6)C[C@@H]5/C=C\CCCC(=O)N(C)[C@@H](C(C)(C)C)C(=O)N4C3)cc(-c3ccccc3)nc2c1` [Compound 11, (2R,6S,13aR,14aS,16aS,Z)-6-tert-butyl-N-(cyclopropylsulfonyl)-2-(7-methoxy-2-phenylquinolin-4-yloxy)-7-methyl-5,8,16-trioxo-1,2,3,5,6,7,8,9,10,11,13a,14,14a,15,16,16a-hexadecahydrocyclopropa[n]pyrrolo[2,1-c] [1,4,7]triazacyclopentadecine-14a-carboxamide] gave an EC50 of at most 10 µM and an EC50 (read-out: EC50) of over 10 µM.
`COc1ccc2c(O[C@@H]3C[C@H]4C(=O)N[C@]5(C(=O)NS(=O)(=O)C6CC6)C[C@H]5/C=C\CCCC(=O)N(C)CC(=O)N4C3)cc(-c3nc(C(C)C)cs3)nc2c1C` [Compound 18, (2R,14aR,16aS,Z)-N-(cyclopropylsulfonyl)-2-(2-(4-isopropyithiazol-2-yl)-7-methoxy-8-methylquinolin-4-yloxy)-7-methyl-5,8,16-trioxo-1,2,3,5,6,7,8,9,10,11,13a,14,14a,15,16,16a-hexadecahydrocyclopropa[n]pyrrolo[2,1-c] [1,4,7]triazacyclopentadecine-14a-carboxamide] showed an EC50 (read-out: EC50) of under 1 µM.
`COc1ccc2c(O[C@@H]3C[C@H]4C(=O)NC5(C(=O)NS(=O)(=O)C6CC6)CC5/C=C\CCCC(=O)N[C@@H](C(C)(C)C)C(=O)N4C3)cc(-c3ccccc3)nc2c1` (stereo partly drawn) [Compound 4, (2R,6S,16aS,Z)-6-tert-butyl-N-(cyclopropylsulfonyl)-2-(7-methoxy-2-phenylquinolin-4-yloxy)-5,8,16-trioxo-1,2,3,5,6,7,8,9,10,11,13a,14,14a,15,16,16a-hexadecahydrocyclopropa[n]pyrrolo[2,1-c] [1,4,7]triazacyclopentadecine-14a-carboxamide] was tested, and the EC50 (read-out: EC50) was 1 to 10 µM.
For `C=CCCCC(=O)N[C@@H](C(=O)N1C[C@H](Oc2cc(-c3ccccc3)nc3cc(OC)ccc23)C[C@H]1C(=O)N[C@@]1(C(=O)NS(=O)(=O)C2CC2)C[C@@H]1C=C)C(C)(C)C` [Compound 8, (2S,4R)-N-((1S,2R)-1-(cyclopropylsulfonylcarbamoyl)-2-vinylcyclopropyl)-1-((R)-2-hex-5-enamido-3,3-dimethylbutanoyl)-4-(7-methoxy-2-phenylquinolin-4-yloxy)pyrrolidine-2-carboxamide], the EC50 (read-out: EC50) was 1 to 10 µM.
For `COc1ccc2c(O[C@@H]3C[C@H]4C(=O)NC5(C(=O)NS(=O)(=O)C6CC6)CC5/C=C\CCCC(=O)N[C@@H](CC(=O)OC(C)(C)C)C(=O)N4C3)cc(-c3ccccc3)nc2c1` (stereo partly drawn) [Compound 14, tert-butyl 2-((2R,6S,16aS,Z)-14a-(cyclopropylsulfonylcarbamoyl)-2-(7-methoxy-2-phenylquinolin-4-yloxy)-5,8,16-trioxo-1,2,3,5,6,7,8,9,10,11,13a,14,14a,15,16,16a-hexadecahydrocyclopropa[n]pyrrolo [2,1-c][1,4,7]triazacyclopentadecin-6-yl)acetate], the EC50 (read-out: EC50) was under 1 µM.
